Assay [1] concerns the target T1, T862A HER2 receptor (Homo sapiens, UniProt P04626, T862A).
T1 construct: expressed in transfected cells; host or cells: HER2 reporter cells (clone #1)
The experiment in a line: HER2 reporter cells transfected with linear expression cassette of T862A HER2, all-in-one method. Format: cell-based. As to conditions: 24 hours post-transfection. From the text:
T862A corresponds to a missense mutation of HER2, which changes Threonine (T) into Alanine (A) at amino acid position of 862. In order to functionally characterize this mutation, PCR-mediated overlapping extension was employed to construct a linear expression cassette of HER2 carrying this mutation. The linear expression cassette of mutant HER2 DNA was transfected into the reporter cells followed by treatment with NRG1 and its inhibitors using the “all-in-one” method. The luciferase reporter activity was measured 24 hours post-transfection.

Assay [2] addresses T2, P780ins HER2 receptor (Homo sapiens, UniProt P04626, INS780GSP).
T2 construct: expressed in transfected cells; host or cells: HER2 reporter cells (clone #1)
The experiment in a line: HER2 reporter cells transfected with linear expression cassette of P780ins HER2, all-in-one method. It is filed as cell-based. From the text: P780ins corresponds to an insertion mutation of HER2, which adds 3 amino acids (GSP) after the amino acid position of […] (Proline—P). In order to functionally characterize this mutation, PCR-mediated overlapping extension was employed to construct linear expression cassette of HER2 carrying this insertion. The linear expression cassette of mutant HER2 DNA was first transfected into the reporter cells followed by treatment with NRG1 and its inhibitors using the “all-in-one” method. The luciferase reporter activity was measured 24 hours post-transfection.

Assay [3] has as its target HER2 receptor (Homo sapiens, UniProt P04626). The experiment in a line: Luciferase reporters (ERK-Luc, FRE-Luc, JNK-Luc, NFkB-Luc) in HEK293 cells overexpressing HER2, treated with lapatinib. Format: cell-based. As to conditions: 10 nM, 4 hours.
Protocol: In order to identify a reporter to measure the activity of HER2 receptor, the HEK293 cells were transfected with different reporter constructs, including ERK-Luc, FRE-Luc, JNK-Luc and NFkB-Luc, in the absence or presence of HER2 expression plasmid. After 24 hours, the luciferase reporter activity of the transfected cells was measured by Nano-Glo® Luciferase Assay (Promega). […] The luciferase reporter activity of the transfected cells was measured by Nano-Glo® Luciferase Assay (Promega). […] For cell transfection experiments, HEK293 cells (ATCC) were plated at density of 4-8×10^4 cells per well (96-well plates) or 1-2×10^4 cells per well (384-well plates) in phenol red-free MEM containing 10% FBS and antibiotics. Either DNA plasmid or linear DNA was mixed with TransIT-293 transfection reagent (Mirus Bio LLC). Once cells were trypsinized, DNA transfection mix was added. The cells were then incubated for 24 or 48 hours.
Assay [4] addresses T3, L755S HER2 receptor (Homo sapiens, UniProt P04626, L755S).
T3 construct: expressed in transfected cells; host or cells: HER2 reporter cells (clone #1)
The experiment in a line: HER2 reporter cells transfected with linear expression cassette of L755S HER2, all-in-one method. Format: cell-based. As to conditions: 24 hours post-transfection. The source says:
L755S corresponds to a missense mutation of HER2, which changes leucine (L) into serine (S) at amino acid position of 755. In order to functionally characterize this mutation, PCR-mediated overlapping extension was employed to construct linear expression cassette of HER2 carrying this mutation. The linear expression cassette of mutant HER2 DNA was first transfected into the reporter cells followed by treatment with NRG1 and its inhibitors using the “all-in-one” method. The luciferase reporter activity was measured 24 hours post-transfection.

In assay [5] the test system is HER1, HER2 and HER3 receptors. The experiment in a line: ERK-Luc, JNK-Luc and NFkB-Luc reporters in HEK293 cells co-transfected with HER1, HER2 and HER3, treated with ligand. Format: cell-based, human. As to conditions: ligand 6 hours; HER1, HER2, HER3 co-transfected HEK293. The protocol:
In order to identify reporters to measure the activity of HER2 receptor, expression plasmids of HER1, HER2 and HER3 were co-transfected with different reporter constructs, including ERK-Luc, JNK-Luc and NFkB-Luc, into the HEK293 cells. After 24 hours, the transfected cells were treated with either EGF (HER1 receptor ligand) or NRG1 (HER3 receptor ligand) for 6 hours. The luciferase reporter activity of the transfected cells was measured by Nano-Glo® Luciferase Assay (Promega). […] JNK-Luc reporter was activated when the transfected cells were treated with either HER1 or HER3 ligand (FIG. 11B).
(§1) For cell transfection experiments, HEK293 cells (ATCC) were plated at density of 4-8×10^4 cells per well (96-well plates) or 1-2×10^4 cells per well (384-well plates) in phenol red-free MEM containing 10% FBS and antibiotics. Either DNA plasmid or linear DNA was mixed with TransIT-293 transfection reagent (Mirus Bio LLC). Once cells were trypsinized, DNA transfection mix was added. The cells were then incubated for 24 or 48 hours.

Assay [6] has as its system HER1 and HER2 receptors. The experiment in a line: JNK-Luc reporter in HEK293 cells with HER1 and wild-type or kinase-dead HER2, treated with EGF. The note with it: HER1 plus wild-type or kinase-dead HER2. Format: cell-based, human. The procedure:
In order to characterize the specificity of activation of JNK-Luc reporter upon treatment of HER1 ligand, JNK-Luc was co-transfected with expression plasmids of HER1 and wild-type or kinase-dead HER2 receptors into the HEK293 cells. After 24 hours, the transfected cells were treated with EGF (HER1 receptor ligand). The luciferase reporter activity of the transfected cells was measured by Nano-Glo® Luciferase Assay (Promega). In FIG. 12, no difference was found between the cells transfected with wild-type HER2 and kinase-dead HER2.
as §1

With `CS(=O)(=O)CCNCc1ccc(-c2ccc3ncnc(Nc4ccc(OCc5cccc(F)c5)c(Cl)c4)c3c2)o1` [Lapatinib], the “reporter activity after HER2 inhibitor in the presence of NRG1” value in assay [1] is listed as “did not respond”; in assay [2] (all-in-one method, 24 hours post-transfection), “very minor reduction of reporter activity”; in assay [4] it was “did not respond”. In addition, in assay [2] (high concentration of lapatinib, in the presence of NRG1), the “activity retained compared to the cells without the treatment of inhibitor” value is “more than 75%”. Also, the “inhibition of increased reporter activities upon HER2 expression” value in assay [3] is listed as “did not inhibit”.

Turning to “EGF: HER1 receptor ligand (NSDSECPLSHDGYCLHDGVCMYIEALDKYACNCVVGYIGERCQYRDLKWWELR)”, the JNK-Luc reporter activation result in assay [5] is listed as “activated”; in assay [6], “effectively activated”. For the same molecule, the NFkB-Luc reporter activation entry in assay [5] is reported as “no activation”.
